# In patent US20250262201A1, “COMPOUNDS AND METHODS USEFUL FOR STABILIZING PHENYLALANINE HYDROXYLASE MUTATIONS” (Agios Pharmaceuticals, Inc., priority 2022, published 2025):
# Target: T1, human PAH with the R408W mutation (Homo sapiens, UniProt P00439, R408W)
# T1 construct: expressed in transfected cells
# T1 sequence (P00439 1-452 R408W): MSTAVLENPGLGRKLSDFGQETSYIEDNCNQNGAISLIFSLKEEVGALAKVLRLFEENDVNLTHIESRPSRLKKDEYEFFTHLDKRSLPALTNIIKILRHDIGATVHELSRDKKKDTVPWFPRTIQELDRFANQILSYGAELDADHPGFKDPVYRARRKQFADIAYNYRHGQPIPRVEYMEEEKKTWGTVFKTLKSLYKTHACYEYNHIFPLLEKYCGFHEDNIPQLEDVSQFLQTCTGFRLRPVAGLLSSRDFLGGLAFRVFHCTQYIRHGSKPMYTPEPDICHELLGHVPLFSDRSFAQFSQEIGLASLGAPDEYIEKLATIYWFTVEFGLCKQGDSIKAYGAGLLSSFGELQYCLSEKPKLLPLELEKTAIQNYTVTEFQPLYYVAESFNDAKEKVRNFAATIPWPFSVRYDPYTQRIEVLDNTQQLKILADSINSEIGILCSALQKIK
# Experiment: Cell Based Phenylalanine Flux Assay
# Conditions: A375 R408W cells, 24 hrs with compound, then 20 μM sepiapterin and 800 μM 13C9,15N-Phenylalanine for 4 hours; 13C-Tyrosine by LC-MS; average where tested multiple times; read-out: AC50
row,Compound,AC50
1,O=C(c1nc2ccccc2s1)N1CCc2[nH]cnc2C1c1ccc2ccccc2c1 (stereo not shown),> 5 µM
2,O=C(c1nnc(CCO)o1)N1CCc2[nH]cnc2C1c1ccc2ccccc2n1 (stereo not shown),> 5 µM
3,O=C(CCc1ccc(F)cc1)N1CCc2[nH]cnc2C1c1ccc2ccccc2c1 (stereo not shown),> 5 µM
4,O=C(CCc1cnco1)N1CCc2[nH]cnc2C1c1cn2ccccc2n1 (stereo not shown),1 to 5 µM
5,Cc1nnc(CCC(=O)N2CCc3[nH]cnc3C2c2cn3ccccc3n2)o1 (stereo not shown),> 5 µM
6,O=C(CCc1nccs1)N1CCc2[nH]cnc2C1c1cn2ccccc2n1 (stereo not shown),1 to 5 µM
7,O=C(Cn1cncn1)N1CCc2[nH]cnc2C1c1cn2ccccc2n1 (stereo not shown),> 5 µM
8,O=C(Cc1cscn1)N1CCc2[nH]cnc2C1c1cn2ccccc2n1 (stereo not shown),1 to 5 µM
9,O=C(Cc1cnco1)N1CCc2[nH]cnc2C1c1cn2ccccc2n1 (stereo not shown),> 5 µM
10,O=C(Cc1cncs1)N1CCc2[nH]cnc2C1c1cn2ccccc2n1 (stereo not shown),> 5 µM
11,O=C(CCc1ncco1)N1CCc2[nH]cnc2C1c1cn2ccccc2n1 (stereo not shown),1 to 5 µM
12,O=C(CCc1ccccc1)N1CCc2[nH]cnc2C1c1cn2ccccc2n1 (stereo not shown) [listing 1 of 2 here],1 to 5 µM
13,O=C(Cc1ccccn1)N1CCc2[nH]cnc2C1c1cn2ccccc2n1 (stereo not shown),> 5 µM
14,Cc1nnc(CC(=O)N2CCc3[nH]cnc3C2c2cn3ccccc3n2)s1 (stereo not shown),> 5 µM
15,Cc1ncc(CC(=O)N2CCc3[nH]cnc3C2c2cn3ccccc3n2)o1 (stereo not shown),> 5 µM
16,Cc1nnc(CCC(=O)N2CCc3[nH]cnc3C2c2cn3ccccc3n2)s1 (stereo not shown),> 5 µM
17,O=C(Cc1nncs1)N1CCc2[nH]cnc2C1c1cn2ccccc2n1 (stereo not shown),> 5 µM
18,O=C(CCc1cncs1)N1CCc2[nH]cnc2C1c1cn2ccccc2n1 (stereo not shown),> 5 µM
19,O=C(Cc1cnn2ccccc12)N1CCc2[nH]cnc2C1c1cn2ccccc2n1 (stereo not shown),> 5 µM
20,Cc1ncoc1CC(=O)N1CCc2[nH]cnc2C1c1cn2ccccc2n1 (stereo not shown),> 5 µM
21,O=C(Cc1nc(C(F)(F)F)cs1)N1CCc2[nH]cnc2C1c1cn2ccccc2n1 (stereo not shown) [listing 1 of 2 here],1 to 5 µM
22,CN1CCN(c2nnc(C(=O)N3CCc4[nH]cnc4C3c3cn4ccccc4n3)o2)CC1 (stereo not shown),> 5 µM
23,O=C(Cc1coc(C(F)F)n1)N1CCc2nc[nH]c2C1c1cn2ccccc2n1 (stereo not shown),1 to 5 µM
24,CC(C)(O)c1cc(C(=O)N2CCc3[nH]cnc3C2c2ccc3ccccc3n2)no1 (stereo not shown) [listing 1 of 2 here],1 to 5 µM

row,Compound,AC50
1,Cc1nnc(C(=O)N2CCc3[nH]cnc3C2c2cn3ccccc3n2)o1 (stereo not shown),1 to 5 µM
2,Cn1cc(-c2nnc(C(=O)N3CCc4[nH]cnc4C3c3cn4ccccc4n3)o2)cn1 (stereo not shown),1 to 5 µM
3,CC(C)(O)c1nc(C2CC2)c(C(=O)N2CCc3[nH]cnc3C2c2cn3ccccc3n2)o1 (stereo not shown),1 to 5 µM
4,O=C(c1oc(-c2ccccn2)nc1C1CC1)N1CCCc2[nH]cnc2C1c1cn2ccccc2n1 (stereo not shown),> 5 µM
5,O=C(c1oc(-c2ccccn2)nc1C1CC1)N1CCc2nc[nH]c2C1c1cn2ccccc2n1 (stereo not shown),1 to 5 µM
6,CC(C)(O)c1nc(C(F)(F)F)c(C(=O)N2CCc3[nH]cnc3C2c2cn3ccccc3n2)o1 (stereo not shown),1 to 5 µM
7,O=C(c1ocnc1-c1ccccn1)N1CCc2[nH]cnc2C1c1cn2ccccc2n1 (stereo not shown),1 to 5 µM
8,Cc1nc(-c2ccccn2)oc1C(=O)N1CCc2[nH]cnc2C1c1cn2ccccc2n1 (stereo not shown) [listing 1 of 2 here],1 to 5 µM
9,O=C(c1nnc(-c2ccccn2)o1)N1CCc2[nH]cnc2C1c1cn2ccccc2n1 (stereo not shown),1 to 5 µM
10,O=C(c1nnc(-c2ccccn2)o1)N1CCCc2[nH]cnc2C1c1cn2ccccc2n1 (stereo not shown),> 5 µM
11,Cc1nc(C(C)(C)O)oc1C(=O)N1CCc2[nH]cnc2C1c1cn2ccccc2n1 (stereo not shown),1 to 5 µM
12,CC(C)(O)c1ncc(C(=O)N2CCc3[nH]cnc3C2c2cn3ccccc3n2)s1 (stereo not shown),1 to 5 µM
13,O=C(c1cnc(C(F)F)s1)N1CCc2[nH]cnc2C1c1cn2ccccc2n1 (stereo not shown),1 to 5 µM
14,O=C(c1nnc(C2CC2)o1)N1CCc2[nH]cnc2C1c1cn2ccccc2n1 (stereo not shown),1 to 5 µM
15,O=C(CCc1nc2ccccc2o1)N1CCc2[nH]cnc2C1c1cn2ccccc2n1 (stereo not shown),1 to 5 µM
16,O=C(CCc1nnc(C(F)F)o1)N1CCc2[nH]cnc2C1c1cn2ccccc2n1 (stereo not shown),> 5 µM
17,O=C(c1nnc(N2CCOCC2)o1)N1CCc2[nH]cnc2C1c1cn2ccccc2n1 (stereo not shown),> 5 µM
18,O=C(c1ocnc1C(F)F)N1CCc2nc[nH]c2C1c1cn2ccccc2n1 (stereo not shown),1 to 5 µM
19,O=C(c1cnco1)N1CCc2[nH]cnc2C1c1cn2ccccc2n1 (stereo not shown),1 to 5 µM
20,O=C(c1cncs1)N1CCc2[nH]cnc2C1c1cn2ccccc2n1 (stereo not shown) [listing 1 of 2 here],1 to 5 µM
21,O=C(c1cnc(C(F)(F)F)s1)N1CCc2[nH]cnc2C1c1cn2ccccc2n1 (stereo not shown) [listing 1 of 2 here],1 to 5 µM
22,O=C(C1CC1)N1CCc2nc[nH]c2C1c1cn2ccccc2n1 (stereo not shown),1 to 5 µM
23,Cn1cc(-c2ncc(C(=O)N3CCc4[nH]cnc4C3c3ncc4ccccc4n3)o2)cn1 (stereo not shown) [listing 1 of 2 here],> 5 µM
24,CC(C)(O)c1nnc(C(=O)N2CCc3[nH]cnc3C2c2ncc3ccccc3n2)o1 (stereo not shown) [listing 1 of 2 here],> 5 µM

row,Compound,AC50
1,CN(C)c1nnc(C(=O)N2CCc3[nH]cnc3C2c2ncc3ccccc3n2)o1 (stereo not shown) [listing 1 of 2 here],> 5 µM
2,O=C(c1nnc(-c2ncccn2)o1)N1CCc2[nH]cnc2C1c1ncc2ccccc2n1 (stereo not shown) [listing 1 of 2 here],> 5 µM
3,Cc1nnc(C(=O)N2CCc3[nH]cnc3C2c2ncc3ccccc3n2)o1 (stereo not shown) [listing 1 of 2 here],> 5 µM
4,CN(C)Cc1ccc2c(C(=O)N3CCc4[nH]cnc4C3c3cn4ccccc4n3)cnn2c1 (stereo not shown),> 5 µM
5,O=C(c1cnn2cc(N3CCC(O)CC3)ccc12)N1CCc2[nH]cnc2C1c1ncc2ccccc2n1 (stereo not shown),1 to 5 µM
6,O=C(CCc1nccs1)N1CCc2[nH]cnc2C1c1cc2ccccc2nn1 (stereo not shown),1 to 5 µM
7,O=C(Cc1nc(C(F)(F)F)cs1)N1CCc2[nH]cnc2C1c1cn2ccccc2n1 (stereo not shown) [listing 2 of 2 here],> 5 µM
8,O=C(CCc1ccccc1)N1CCc2[nH]cnc2C1c1cn2ccccc2n1 (stereo not shown) [listing 2 of 2 here],> 5 µM
9,CC(C)(O)c1cc(C(=O)N2CCc3[nH]cnc3C2c2ccc3ccccc3n2)no1 (stereo not shown) [listing 2 of 2 here],> 5 µM
10,CC(C)(O)c1nnc(C(=O)N2CCc3[nH]cnc3C2c2cc3ccccc3nn2)o1 (stereo not shown),1 to 5 µM
11,Cc1nc(-c2ccccn2)oc1C(=O)N1CCc2[nH]cnc2C1c1cn2ccccc2n1 (stereo not shown) [listing 2 of 2 here],> 5 µM
12,CC(C)(O)c1cc(C(=O)N2CCc3[nH]cnc3C2c2ccc3ccccc3n2)on1 (stereo not shown),> 5 µM
13,Cc1nc(-c2cnn(C)c2)oc1C(=O)N1CCc2[nH]cnc2C1c1ncc2ccccc2n1 (stereo not shown),> 5 µM
14,Cn1cncc1-c1nnc(C(=O)N2CCc3[nH]cnc3C2c2ncc3ccccc3n2)o1 (stereo not shown),1 to 5 µM
15,O=C(c1cnco1)N1CCc2[nH]cnc2C1c1cc2ccccc2nn1 (stereo not shown),1 to 5 µM
16,O=C(c1cnc(-c2ccccn2)o1)N1CCc2[nH]cnc2C1c1cc2ccccc2nn1 (stereo not shown),1 to 5 µM
17,Cn1nc(C(F)F)nc1C(=O)N1CCc2[nH]cnc2C1c1cc2ccccc2nn1 (stereo not shown),1 to 5 µM
18,O=C(c1ocnc1C(F)F)N1CCc2[nH]cnc2C1c1cc2ccccc2nn1 (stereo not shown),1 to 5 µM
19,O=C(c1oc(-c2ccccn2)nc1C(F)F)N1CCc2[nH]cnc2C1c1cc2ccccc2nn1 (stereo not shown),> 5 µM
20,Cn1ccc(-c2nnc(C(=O)N3CCc4[nH]cnc4C3c3cc4ccccc4nn3)o2)n1 (stereo not shown),1 to 5 µM
21,Cn1cc(-c2nnc(C(=O)N3CCc4[nH]cnc4C3c3cc4ccccc4nn3)o2)cn1 (stereo not shown),1 to 5 µM
22,O=C(c1nnc(-c2ccccn2)o1)N1CCc2[nH]cnc2C1c1cc2ccccc2nn1 (stereo not shown),1 to 5 µM
23,O=C(c1nnc(C2CC2)o1)N1CCc2[nH]cnc2C1c1cc2ccccc2nn1 (stereo not shown),1 to 5 µM
24,Cc1nnc(C(=O)N2CCc3[nH]cnc3C2c2cc3ccccc3nn2)o1 (stereo not shown),> 5 µM

row,Compound,AC50
1,CC(C)(C)c1nnc(C(=O)N2CCc3[nH]cnc3C2c2cc3ccccc3nn2)o1 (stereo not shown),1 to 5 µM
2,O=C(c1cncs1)N1CCc2[nH]cnc2C1c1cn2ccccc2n1 (stereo not shown) [listing 2 of 2 here],> 5 µM
3,O=C(c1cnc(C(F)(F)F)s1)N1CCc2[nH]cnc2C1c1cn2ccccc2n1 (stereo not shown) [listing 2 of 2 here],> 5 µM
4,Cn1cc(-c2ncc(C(=O)N3CCc4[nH]cnc4C3c3ncc4ccccc4n3)o2)cn1 (stereo not shown) [listing 2 of 2 here],1 to 5 µM
5,CC(C)(O)c1ncc(C(=O)N2CCc3[nH]cnc3C2c2ncc3ccccc3n2)o1 (stereo not shown),> 5 µM
6,Cc1ncoc1C(=O)N1CCc2[nH]cnc2C1c1ncc2ccccc2n1 (stereo not shown),1 to 5 µM
7,O=C(c1nnc(-c2cn[nH]c2)o1)N1CCc2[nH]cnc2C1c1ncc2ccccc2n1 (stereo not shown),1 to 5 µM
8,CC(C)(O)c1nnc(C(=O)N2CCc3[nH]cnc3C2c2ncc3ccccc3n2)o1 (stereo not shown) [listing 2 of 2 here],1 to 5 µM
9,O=C(c1nnc(N2CC(F)C2)o1)N1CCc2[nH]cnc2C1c1ncc2ccccc2n1 (stereo not shown),1 to 5 µM
10,CN1CCN(c2nnc(C(=O)N3CCc4[nH]cnc4C3c3ncc4ccccc4n3)o2)CC1 (stereo not shown),1 to 5 µM
11,CN(C)c1nnc(C(=O)N2CCc3[nH]cnc3C2c2ncc3ccccc3n2)o1 (stereo not shown) [listing 2 of 2 here],1 to 5 µM
12,O=C(c1nnc(-c2ncccn2)o1)N1CCc2[nH]cnc2C1c1ncc2ccccc2n1 (stereo not shown) [listing 2 of 2 here],1 to 5 µM
13,Cc1nnc(C(=O)N2CCc3[nH]cnc3C2c2ncc3ccccc3n2)o1 (stereo not shown) [listing 2 of 2 here],1 to 5 µM
14,O=C(c1nnc(N2CCOCC2)o1)N1CCc2[nH]cnc2C1c1ncc2ccccc2n1 (stereo not shown),1 to 5 µM
15,CN(C)Cc1ccc2c(C(=O)N3CCc4[nH]cnc4C3c3cc4ccccc4nn3)cnn2c1 (stereo not shown),> 5 µM
16,CC1CN(C(=O)c2nnc(N3CC(F)C3)o2)C(c2cc3ccccc3cn2)c2nc[nH]c21 (stereo not shown),> 5 µM
17,Cc1ncoc1C(=O)N1CC(C)c2[nH]cnc2C1c1cc2ccccc2cn1 (stereo not shown),> 5 µM
18,CC1CN(C(=O)c2ocnc2C(F)(F)F)C(c2cc3ccccc3cn2)c2nc[nH]c21 (stereo not shown),1 to 5 µM
19,COCCNc1nnc(C(=O)N2CC(C)c3[nH]cnc3C2c2cc3ccccc3cn2)o1 (stereo not shown),1 to 5 µM
20,CC1CN(C(=O)c2nnc(NC3CC3)o2)C(c2cc3ccccc3cn2)c2nc[nH]c21 (stereo not shown),1 to 5 µM
21,CC1CN(C(=O)c2oc(-c3ccccn3)nc2C(F)(F)F)C(c2cc3ccccc3cn2)c2nc[nH]c21 (stereo not shown),0.5 to 1 µM
22,CC1CN(C(=O)c2nnc(-c3cnn(C)c3)o2)C(c2cc3ccccc3cn2)c2nc[nH]c21 (stereo not shown),> 5 µM
